# Test results as given in PMC3399817 (PLoS ONE, 2012).
# How the values were obtained:
# [1] = molecular target: T1, RPS6KA2(Kin.Dom.2-C-terminal) (Homo sapiens, UniProt Q15349); experiment: KINOMEscan; assay type: binding; details: 1 uM
# T1 construct: RPS6KA2(Kin.Dom.2-C-terminal); purchased Ambit KINOMEscan (DiscoverX)
# Procedure, shortened: (§1)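 First-pass selectivity screen: compound at 1 μM, endpoint is whether substrate binding to each kinase is suppressed.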
# [2] = tested on: phospho-MEK1 (Ser217/Ser221) and phospho-ERK1/2 (Thr202/Tyr204, Thr185/Tyr187); experiment: Bio-Plex phospho-MEK1 and phospho-ERK1/2; assay type: cell-based; details: 45 minute exposure, 1 µM, K-RAS wild-type and mutant cells
# Method: The Bio-Plex assay system was used to measure signaling in drug-treated cells. Briefly, cells were incubated in the presence of drug for various amounts of time and then lysed in Bio-Rad cell lysis buffer (Bio-Rad). Protein quantification was performed using BCA assay (Pierce) and 5 µg of protein from each sample was used for Bio-Plex analysis. Phospho-signaling assays were performed using available phospho-signaling assay kits and quantified on a Bio-Plex 200 system (Bio-Rad): p-Iκβα (Ser32/Ser36), p-JNK (Thr183/Tyr185), p-MEK1 (Ser217/Ser221), p-ERK1/2 (Thr202/Tyr204, Thr185/Tyr187), p-p90RSK (Thr359/Ser363), p-p38 (Thr180/Tyr182), p-c-JUN (Ser63), p-ATF2 (Thr71), p-AKT (Ser473), p-S6 (Ser235/Ser236), p-STAT3 (Ser727), p-STAT3 (Tyr705), and p-GSK3α/β (Ser21/Ser9). Bio-Plex assay for total MEK1 was also performed as a loading control.
# [3] = tested on: antigen-induced airway inflammation; parameters: method as in PMID 12766258; details: rats ref 14; cited from earlier work
# [4] = molecular target: T2, BLK (Homo sapiens, UniProt P51451); experiment: KINOMEscan; assay type: binding; details: 1 uM
# T2 construct: purchased Ambit KINOMEscan (DiscoverX)
# Procedure, shortened: as §1
# [5] = molecular target: T3, CDK5 (Homo sapiens, UniProt Q00535); experiment: KINOMEscan; assay type: binding; details: CDK5, 1 uM
# T3 construct: purchased Ambit KINOMEscan (DiscoverX)
# Procedure, shortened: as §1
# [6] = molecular target: T4, EGFR(S752-I759del) (Homo sapiens, UniProt P00533, DEL752-759); experiment: KINOMEscan; assay type: binding; details: 1 uM
# T4 construct: purchased Ambit KINOMEscan (DiscoverX)
# Procedure, shortened: as §1
# [7] = molecular target: T5, FLT3(D835Y) (Homo sapiens, UniProt P36888, D835Y); experiment: KINOMEscan; assay type: binding; details: 1 uM
# T5 construct: purchased Ambit KINOMEscan (DiscoverX)
# Procedure, shortened: as §1
# [8] = molecular target: T6, FLT3(R834Q) (Homo sapiens, UniProt P36888, R834Q); experiment: KINOMEscan; assay type: binding; details: 1 uM
# T6 construct: purchased Ambit KINOMEscan (DiscoverX)
# Procedure, shortened: as §1
# [9] = molecular target: T7, KIT(A829P) (Homo sapiens, UniProt P10721, A829P); experiment: KINOMEscan; assay type: binding; details: 1 uM
# T7 construct: purchased Ambit KINOMEscan (DiscoverX)
# Procedure, shortened: as §1
# [10] = molecular target: T8, LRRK2 (Homo sapiens, UniProt Q5S007); experiment: KINOMEscan; assay type: binding; details: LRRK2, 1 uM
# T8 construct: purchased Ambit KINOMEscan (DiscoverX)
# Procedure, shortened: as §1
# [11] = molecular target: T9, MKK7 (Homo sapiens, UniProt O14733); experiment: KINOMEscan; assay type: binding; details: MKK7, 1 uM
# T9 construct: purchased Ambit KINOMEscan (DiscoverX)
# Procedure, shortened: as §1
# [12] = molecular target: T10, NEK4 (Homo sapiens, UniProt P51957); experiment: KINOMEscan; assay type: binding; details: NEK4, 1 uM
# T10 construct: purchased Ambit KINOMEscan (DiscoverX)
# Procedure, shortened: as §1
# [13] = molecular target: T11, PIK3CA(I800L) (Homo sapiens, UniProt P42336, I800L); experiment: KINOMEscan; assay type: binding; details: 1 uM
# T11 construct: purchased Ambit KINOMEscan (DiscoverX)
# Procedure, shortened: as §1
# [14] = molecular target: T12, RET(V804M) (Homo sapiens, UniProt P07949, V804M); experiment: KINOMEscan; assay type: binding; details: 1 uM
# T12 construct: purchased Ambit KINOMEscan (DiscoverX)
# Procedure, shortened: as §1
# [15] = molecular target: T13, RPS6KA6(Kin.Dom.1-N-terminal) (Homo sapiens, UniProt Q9UK32); experiment: KINOMEscan; assay type: binding; details: 1 uM
# T13 construct: RPS6KA6(Kin.Dom.1-N-terminal); purchased Ambit KINOMEscan (DiscoverX)
# Procedure, shortened: as §1
# [16] = molecular target: T14, SGK3 (Homo sapiens, UniProt Q96BR1); experiment: KINOMEscan; assay type: binding; details: SGK3, 1 uM
# T14 construct: purchased Ambit KINOMEscan (DiscoverX)
# Procedure, shortened: as §1
# [17] = molecular target: T15, TRKA (Homo sapiens, UniProt P04629); experiment: KINOMEscan; assay type: binding; details: 1 uM
# T15 construct: purchased Ambit KINOMEscan (DiscoverX)
# Procedure, shortened: as §1
# [18] = molecular target: T16, YANK1 (Homo sapiens, UniProt Q8WU08); experiment: KINOMEscan; assay type: binding; details: YANK1, 1 uM
# T16 construct: purchased Ambit KINOMEscan (DiscoverX)
# Procedure, shortened: as §1
# [19] = molecular target: T17, ZAK (Homo sapiens, UniProt Q9NYL2); experiment: KINOMEscan; assay type: binding; details: 1 uM
# T17 construct: purchased Ambit KINOMEscan (DiscoverX)
# Procedure, shortened: as §1
# [20] = molecular target: T18, p38-delta (Homo sapiens, UniProt O15264); experiment: KINOMEscan; assay type: binding; details: 1 uM
# T18 construct: purchased Ambit KINOMEscan (DiscoverX)
# Procedure, shortened: as §1
# [21] = molecular target: T19, MAP4K2 (Homo sapiens, UniProt Q12851); experiment: SelectScreen in vitro kinase IC50; assay type: biochemical; details: Fig. S5
# T19 construct: purchased Ambit KINOMEscan (DiscoverX)
# T19 sequence (Q12851 1-820): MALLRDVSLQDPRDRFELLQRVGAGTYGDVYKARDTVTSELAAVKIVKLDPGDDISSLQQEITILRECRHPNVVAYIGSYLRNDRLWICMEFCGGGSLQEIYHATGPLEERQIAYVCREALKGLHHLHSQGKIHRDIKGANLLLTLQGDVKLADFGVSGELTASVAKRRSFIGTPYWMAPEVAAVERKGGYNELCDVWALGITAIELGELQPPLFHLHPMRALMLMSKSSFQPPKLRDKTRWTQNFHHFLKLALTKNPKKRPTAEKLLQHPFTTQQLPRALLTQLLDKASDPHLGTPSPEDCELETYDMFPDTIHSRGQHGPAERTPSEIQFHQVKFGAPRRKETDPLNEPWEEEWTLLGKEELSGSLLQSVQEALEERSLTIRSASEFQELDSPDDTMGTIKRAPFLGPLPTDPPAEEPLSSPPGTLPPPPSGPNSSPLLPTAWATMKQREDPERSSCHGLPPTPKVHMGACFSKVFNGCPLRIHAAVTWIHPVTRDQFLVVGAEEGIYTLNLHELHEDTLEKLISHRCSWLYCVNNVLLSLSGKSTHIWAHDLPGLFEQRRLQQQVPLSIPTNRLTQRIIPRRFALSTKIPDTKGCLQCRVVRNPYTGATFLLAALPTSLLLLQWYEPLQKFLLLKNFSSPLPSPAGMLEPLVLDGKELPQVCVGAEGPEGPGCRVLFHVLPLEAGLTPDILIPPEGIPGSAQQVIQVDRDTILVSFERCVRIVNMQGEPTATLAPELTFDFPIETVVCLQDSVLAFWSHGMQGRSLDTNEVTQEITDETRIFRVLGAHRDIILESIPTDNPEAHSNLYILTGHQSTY
# Method: First, we used Ambit's KINOMEscan™ technology to identify those kinases that are inhibited for substrate binding by the compounds, all assayed at 1 μM. Second, we used Invitrogen's SelectScreen® Biochemical Kinase Profiling Service to determine the in vitro IC50s for the compounds against specific kinases.
# T4 sequence (P00533 with tags, fused parts or gaps DEL752-759 limits assumed): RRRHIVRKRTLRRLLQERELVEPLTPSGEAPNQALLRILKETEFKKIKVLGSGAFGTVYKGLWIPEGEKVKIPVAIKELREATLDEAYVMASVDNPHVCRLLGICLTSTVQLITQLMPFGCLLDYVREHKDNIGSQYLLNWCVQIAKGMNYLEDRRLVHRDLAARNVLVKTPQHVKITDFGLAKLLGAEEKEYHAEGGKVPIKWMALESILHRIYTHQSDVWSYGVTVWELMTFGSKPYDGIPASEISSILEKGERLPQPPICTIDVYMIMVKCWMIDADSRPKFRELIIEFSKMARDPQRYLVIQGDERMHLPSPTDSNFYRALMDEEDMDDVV
# T15 sequence (P04629 33-796): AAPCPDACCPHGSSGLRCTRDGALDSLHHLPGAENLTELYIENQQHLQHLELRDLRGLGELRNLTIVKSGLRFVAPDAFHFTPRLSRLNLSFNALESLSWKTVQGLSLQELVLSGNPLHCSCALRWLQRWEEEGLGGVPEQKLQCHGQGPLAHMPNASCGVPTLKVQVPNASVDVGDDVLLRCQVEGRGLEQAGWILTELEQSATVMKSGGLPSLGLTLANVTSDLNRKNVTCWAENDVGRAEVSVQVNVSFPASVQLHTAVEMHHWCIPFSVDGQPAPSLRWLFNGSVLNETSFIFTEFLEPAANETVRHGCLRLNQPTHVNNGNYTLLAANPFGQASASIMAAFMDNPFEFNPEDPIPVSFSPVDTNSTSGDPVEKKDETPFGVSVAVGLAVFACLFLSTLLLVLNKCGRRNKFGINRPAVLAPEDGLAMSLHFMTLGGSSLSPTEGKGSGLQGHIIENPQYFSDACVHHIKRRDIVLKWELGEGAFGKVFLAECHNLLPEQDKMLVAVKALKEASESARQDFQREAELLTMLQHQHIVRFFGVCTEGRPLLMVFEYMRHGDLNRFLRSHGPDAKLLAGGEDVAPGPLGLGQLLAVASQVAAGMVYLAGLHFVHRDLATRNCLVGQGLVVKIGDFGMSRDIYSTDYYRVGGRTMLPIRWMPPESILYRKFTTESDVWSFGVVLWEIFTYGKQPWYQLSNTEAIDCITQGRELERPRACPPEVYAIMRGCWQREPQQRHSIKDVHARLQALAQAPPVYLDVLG
# T14 sequence (Q96BR1 whole entry): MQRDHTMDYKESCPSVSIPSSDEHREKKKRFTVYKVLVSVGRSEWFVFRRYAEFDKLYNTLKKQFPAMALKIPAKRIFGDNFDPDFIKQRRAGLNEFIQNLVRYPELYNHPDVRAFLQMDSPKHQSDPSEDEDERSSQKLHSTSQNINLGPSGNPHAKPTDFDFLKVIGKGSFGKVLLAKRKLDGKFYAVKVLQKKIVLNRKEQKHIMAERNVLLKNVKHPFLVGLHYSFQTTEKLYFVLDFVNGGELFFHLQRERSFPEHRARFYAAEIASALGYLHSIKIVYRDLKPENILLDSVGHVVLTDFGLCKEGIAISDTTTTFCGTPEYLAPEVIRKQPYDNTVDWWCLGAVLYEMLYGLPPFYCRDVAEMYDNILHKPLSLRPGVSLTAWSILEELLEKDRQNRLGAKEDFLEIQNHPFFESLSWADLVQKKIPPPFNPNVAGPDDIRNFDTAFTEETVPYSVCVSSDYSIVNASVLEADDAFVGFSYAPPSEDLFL
# T16 sequence (Q8WU08 whole entry): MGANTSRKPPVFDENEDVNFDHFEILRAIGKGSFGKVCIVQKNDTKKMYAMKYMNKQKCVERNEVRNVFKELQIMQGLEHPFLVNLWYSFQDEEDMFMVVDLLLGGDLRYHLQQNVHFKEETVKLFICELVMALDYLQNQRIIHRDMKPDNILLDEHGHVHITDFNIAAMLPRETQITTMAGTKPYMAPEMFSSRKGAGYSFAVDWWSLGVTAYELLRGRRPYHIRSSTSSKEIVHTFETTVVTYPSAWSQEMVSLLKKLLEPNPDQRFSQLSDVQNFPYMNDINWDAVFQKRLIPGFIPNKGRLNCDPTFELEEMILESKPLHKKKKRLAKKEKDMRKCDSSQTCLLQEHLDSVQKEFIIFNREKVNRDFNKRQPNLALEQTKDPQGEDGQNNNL
# T10 sequence (P51957 whole entry): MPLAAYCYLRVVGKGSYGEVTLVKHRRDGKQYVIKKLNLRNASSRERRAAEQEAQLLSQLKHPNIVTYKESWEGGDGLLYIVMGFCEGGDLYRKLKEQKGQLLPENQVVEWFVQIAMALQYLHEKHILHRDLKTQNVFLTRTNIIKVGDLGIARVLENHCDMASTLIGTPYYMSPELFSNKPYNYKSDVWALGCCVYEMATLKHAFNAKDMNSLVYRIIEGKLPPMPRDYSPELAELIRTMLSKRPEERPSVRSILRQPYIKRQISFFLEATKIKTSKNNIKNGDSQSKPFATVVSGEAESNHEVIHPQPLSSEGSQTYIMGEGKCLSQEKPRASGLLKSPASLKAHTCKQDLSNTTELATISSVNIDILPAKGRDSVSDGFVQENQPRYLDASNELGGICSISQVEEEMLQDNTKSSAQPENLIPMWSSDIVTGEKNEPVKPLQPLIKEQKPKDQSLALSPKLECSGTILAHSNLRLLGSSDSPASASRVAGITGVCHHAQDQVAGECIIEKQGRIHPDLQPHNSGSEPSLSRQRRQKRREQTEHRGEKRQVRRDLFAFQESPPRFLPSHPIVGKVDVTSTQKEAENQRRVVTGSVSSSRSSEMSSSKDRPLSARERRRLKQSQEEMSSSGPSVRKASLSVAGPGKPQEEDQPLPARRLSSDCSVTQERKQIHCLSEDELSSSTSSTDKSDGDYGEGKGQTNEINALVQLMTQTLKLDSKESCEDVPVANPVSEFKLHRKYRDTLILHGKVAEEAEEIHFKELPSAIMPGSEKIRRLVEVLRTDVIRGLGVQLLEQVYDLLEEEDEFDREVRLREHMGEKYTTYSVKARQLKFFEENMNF
# T13 sequence (Q9UK32 1-400 limits assumed): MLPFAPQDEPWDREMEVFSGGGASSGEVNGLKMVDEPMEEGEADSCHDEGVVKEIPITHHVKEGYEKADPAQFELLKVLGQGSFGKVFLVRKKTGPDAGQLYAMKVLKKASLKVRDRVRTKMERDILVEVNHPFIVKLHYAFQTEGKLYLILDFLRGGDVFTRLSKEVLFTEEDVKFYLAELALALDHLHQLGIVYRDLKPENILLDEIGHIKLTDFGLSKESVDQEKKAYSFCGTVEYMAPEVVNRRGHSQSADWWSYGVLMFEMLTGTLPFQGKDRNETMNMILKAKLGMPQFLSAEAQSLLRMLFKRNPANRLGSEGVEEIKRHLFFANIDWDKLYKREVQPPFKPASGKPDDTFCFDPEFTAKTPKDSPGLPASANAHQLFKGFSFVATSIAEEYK
# T11 sequence (P42336 whole entry I800L): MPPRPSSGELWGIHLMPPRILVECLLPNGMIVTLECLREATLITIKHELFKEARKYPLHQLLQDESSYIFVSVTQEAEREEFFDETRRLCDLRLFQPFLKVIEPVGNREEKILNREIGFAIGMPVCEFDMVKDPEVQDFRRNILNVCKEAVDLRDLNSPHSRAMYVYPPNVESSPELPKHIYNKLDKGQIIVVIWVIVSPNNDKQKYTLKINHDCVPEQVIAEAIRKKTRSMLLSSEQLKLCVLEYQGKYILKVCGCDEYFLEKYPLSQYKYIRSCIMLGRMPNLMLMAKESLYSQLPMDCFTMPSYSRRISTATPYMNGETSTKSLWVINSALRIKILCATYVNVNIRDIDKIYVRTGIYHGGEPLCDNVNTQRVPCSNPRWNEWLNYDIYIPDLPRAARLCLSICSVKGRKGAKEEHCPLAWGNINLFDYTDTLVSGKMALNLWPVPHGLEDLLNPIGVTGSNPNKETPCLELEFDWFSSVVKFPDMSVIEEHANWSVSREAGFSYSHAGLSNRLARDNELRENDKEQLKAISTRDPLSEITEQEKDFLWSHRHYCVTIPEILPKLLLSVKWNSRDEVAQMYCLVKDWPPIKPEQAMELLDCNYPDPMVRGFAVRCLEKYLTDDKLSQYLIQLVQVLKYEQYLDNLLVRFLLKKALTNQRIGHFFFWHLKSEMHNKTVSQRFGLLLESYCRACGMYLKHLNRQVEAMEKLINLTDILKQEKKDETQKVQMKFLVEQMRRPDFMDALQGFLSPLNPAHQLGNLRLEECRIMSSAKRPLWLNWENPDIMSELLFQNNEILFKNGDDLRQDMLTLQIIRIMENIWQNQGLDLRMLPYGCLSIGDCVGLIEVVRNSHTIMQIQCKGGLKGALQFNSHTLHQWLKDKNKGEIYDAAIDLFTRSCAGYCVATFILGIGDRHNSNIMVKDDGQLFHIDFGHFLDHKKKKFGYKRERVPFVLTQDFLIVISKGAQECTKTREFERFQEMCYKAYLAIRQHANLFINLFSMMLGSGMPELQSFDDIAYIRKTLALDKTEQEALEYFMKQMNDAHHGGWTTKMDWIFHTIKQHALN
# T1 sequence (Q15349 389-733 limits assumed): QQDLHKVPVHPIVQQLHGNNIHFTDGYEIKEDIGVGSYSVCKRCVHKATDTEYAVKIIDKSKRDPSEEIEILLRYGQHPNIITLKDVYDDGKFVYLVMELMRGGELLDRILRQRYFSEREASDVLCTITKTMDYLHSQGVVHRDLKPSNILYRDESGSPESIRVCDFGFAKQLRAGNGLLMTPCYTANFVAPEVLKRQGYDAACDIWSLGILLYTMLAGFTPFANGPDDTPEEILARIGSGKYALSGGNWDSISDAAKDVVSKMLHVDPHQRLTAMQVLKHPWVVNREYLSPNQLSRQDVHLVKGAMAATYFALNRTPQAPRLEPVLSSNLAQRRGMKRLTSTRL
# T3 sequence (Q00535 whole entry): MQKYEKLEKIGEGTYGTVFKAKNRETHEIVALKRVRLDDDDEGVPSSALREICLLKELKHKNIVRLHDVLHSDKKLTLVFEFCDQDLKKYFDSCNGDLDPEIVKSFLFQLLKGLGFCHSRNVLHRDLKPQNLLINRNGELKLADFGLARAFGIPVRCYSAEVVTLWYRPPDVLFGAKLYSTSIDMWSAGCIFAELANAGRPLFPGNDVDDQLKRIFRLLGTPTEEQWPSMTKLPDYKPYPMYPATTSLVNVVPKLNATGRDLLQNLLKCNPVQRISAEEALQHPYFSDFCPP
smiles,measurement,setting,value
"COc1ccc(-c2cc3nccn3c(Nc3ncccc3C(N)=O)n2)cc1OC.Cl.Cl [BAY61-3606, 2-[7-(3,4-dimethoxyphenyl)-imidazo [1,2-c]pyrimidin-5-ylamino] nicotinamide dihydrochloride, reference compound]",% binding compared to no inhibitor control,[1],89%
same,MEK and ERK phosphorylation,[2],unable to do so
same,antigen-induced airway inflammation,[3],suppresses
COc1ccccc1Nc1nc(-c2ccc(OC)c(OC)c2)cc2nccn12 [BAY derivative 6],% binding compared to no inhibitor control,[4],43%
same,% binding compared to no inhibitor control,[5],100%
same,% binding compared to no inhibitor control,[6],72%
same,% binding compared to no inhibitor control,[7],50%
same,% binding compared to no inhibitor control,[8],100%
same,% binding compared to no inhibitor control,[9],35%
same,% binding compared to no inhibitor control,[10],95%
same,% binding compared to no inhibitor control,[11],86%
same,% binding compared to no inhibitor control,[12],85%
same,% binding compared to no inhibitor control,[13],100%
same,% binding compared to no inhibitor control,[14],94%
same,% binding compared to no inhibitor control,[15],70%
same,% binding compared to no inhibitor control,[16],100%
same,% binding compared to no inhibitor control,[17],98%
same,% binding compared to no inhibitor control,[18],100%
same,% binding compared to no inhibitor control,[19],92%
same,% binding compared to no inhibitor control,[20],100%
same,"in vitro kinase activity of MAP4K2, inhibition",[21],lost its ability to effectively inhibit the in vitro kinase activity of MAP4K2
